pIC50: −log10 of the molar value. “And” between values parts separate entries of the source, which are not always exact repeats. Equal entries are not always repeated. Each block holds one molecule with its values, some of them ahead of it.
Test system: 855422-203-R-J1-PDC complex spheroid viability
Experiment: Anticancer human tumor 855422-203-R-J1-PDC patient-derived bladder carcinoma cell line growth inhibition
Conditions: for viability, T/C: stronger effect = lower value
Description: Multicellular complex tumor spheroid response to LSD1 Inhibitor Iadademstat in combination with a variety of drugs and investigational agents in selected tumor cell lines
The current study was undertaken to assess response to LSD1 inhibitors in combination with standard-of-care drugs and investigational agents in solid tumor complex spheroid models as well as in the K-562 leukemia. Complex spheroids include a stromal component modeled by human endothelial cells (HUVEC) and fibroblasts modeled by human mesenchymal stem cells (MSCs). The concentration ranges selected for each drug and investigational agent were based upon clinically achievable concentrations if the clinical Cmax of the agent was known.
Compounds. The drugs and investigational agents used in this study are listed on Table 1. All of the agents used, including staurosporine (NSC755774) and gemcitabine (NSC613327), were obtained from the Developmental Therapeutics Program, NCI. FDA-approved anticancer drugs are available from the NCI at http://dtp.nci.nih.gov/branches/dscb/oncology_drugset_explanation.html. Drugs and investigational agents were >95% pure by proton nuclear magnetic resonance (NMR) and liquid chromatography/mass spectrometry (LC/MS). Stock solutions were prepared at 400x in DMSO, stored at -70 degrees C, and diluted in fresh medium prior to their use. The final concentration of DMSO in cell culture wells never exceeded 0.25% (v/v). The FDA-approved anticancer drug set is available from the Developmental Therapeutics Program at https://dtp.cancer.gov/organization/dscb/obtaining/available_plates.htm. All drugs and investigational agents were tested over a range starting from a high concentration at or near the clinical Cmax and decreasing in half-log increments. If the clinical Cmax for an agent had not been determined, the highest concentration tested was 10 microM.
Cell Lines. The patient-derived cancer cell (PDC) lines: 292921-168-R-J2-PDC, K24384-001-R-PDC, and 521955-158-R2-J5-PDC pancreatic carcinomas, 556581-035-R-J1 ovarian carcinoma, 324938-238-R-J1-PDC, 855422-203-R-J1-PDC and 883617-216-R-J1-PDC urothelial bladder carcinomas, 743489-274-T-PDC renal cell carcinoma, 138582-R-J1 Merkel cell tumor, K60290-347-R-J1 and K57222-313-R-J1-PDC glioblastomas, 653999-131-R-J2-PDC, LG0703-F948-PDC, and 349418-098-R-PDC non-small cell lung carcinomas, 885512-296-R-J2-PDC, 171881-019-R-J1-PDC breast carcinomas and 186277-243-T-J2-PDC and 233499-124-R-J2-PDC colon carcinomas were obtained from the NCI Patient-Derived Models Repository (PDMR, https://pdmr.cancer.gov). The established cell lines NCI/ADR-RES (RRID:CVCL_14520 and OVCAR-5 (RRID:CVCL_1628) ovarian carcinomas, 786-O (RRID:CVCL_1051) and A498 (RRID:CVCL_A498) renal cell carcinoma, NCI-H211 (ATCC, cat. CRL-5824; RRID:CVCL_1529), NCI-H196 (ATCC, cat. CRL-5823, RRID:CVCL_1509), SW 1271 (ATCC, cat. CRL-2177, RRID:CVCL_1716) and NCI-H1876 (ATCC, cat. CRL-5902, RRID:CVCL_1503) small cell lung carcinomas, MDA-MB-231 (RRID:CVCL_0062) and MDA-MB-468 (RRID:CVCL_0419)breast carcinomas (10-12). Pooled donor human umbilical vein endothelial cells (HUVEC, Lonza, cat. CC-2519) and human mesenchymal stem cells (hMSC, Lonza, cat. PT-2501) were purchased from Lonza (Walkersville, MD).
Cell Culture. All cells were maintained in an incubator at 37 degrees C and 5% CO2 with 95% humidity. The PDC lines were cultured according to standard operating procedures established by the NCI PDMR (https://pdmr.cancer.gov). Briefly all PDCs were thawed and cultured in Matrigel-coated flasks prepared with a working solution of 1X Ham's F-12 nutrient mix, without supplementation (Invitrogen, Waltham, MA, cat. 11765054), 100 U/mL penicillin-streptomycin (Invitrogen, cat. 15140122), and 2.5% Matrigel (Corning Inc., Corning, NY, cat. 354248) for the first three passages. […]

[1] = curve of first compound, second compound 0.1 µM
[2] = curve of first compound, second compound 0.316 µM
[3] = curve of first compound, second compound 1 µM
[4] = curve of first compound, second compound 3.16 µM
[5] = curve of first compound, second compound 10 µM
[6] = second compound 0.1 µM, first compound 0.00316 µM
[7] = second compound 0.1 µM, first compound 0.01 µM
[8] = second compound 0.1 µM, first compound 0.0316 µM
[9] = second compound 0.1 µM, first compound 0.1 µM
[10] = second compound 0.1 µM, first compound 0.316 µM
[11] = second compound 0.1 µM, first compound 1 µM
[12] = second compound 0.316 µM, first compound 0.00316 µM
[13] = second compound 0.316 µM, first compound 0.01 µM
[14] = second compound 0.316 µM, first compound 0.0316 µM
[15] = second compound 0.316 µM, first compound 0.1 µM
[16] = second compound 0.316 µM, first compound 0.316 µM
[17] = second compound 0.316 µM, first compound 1 µM
[18] = second compound 1 µM, first compound 0.00316 µM
[19] = second compound 1 µM, first compound 0.01 µM
[20] = second compound 1 µM, first compound 0.0316 µM
[21] = second compound 1 µM, first compound 0.1 µM
[22] = second compound 1 µM, first compound 0.316 µM
[23] = second compound 1 µM, first compound 1 µM
[24] = second compound 3.16 µM, first compound 0.00316 µM
[25] = second compound 3.16 µM, first compound 0.01 µM
[26] = second compound 3.16 µM, first compound 0.0316 µM
[27] = second compound 3.16 µM, first compound 0.1 µM
[28] = second compound 3.16 µM, first compound 0.316 µM
[29] = second compound 3.16 µM, first compound 1 µM
[30] = second compound 10 µM, first compound 0.00316 µM
[31] = second compound 10 µM, first compound 0.01 µM
[32] = second compound 10 µM, first compound 0.0316 µM
[33] = second compound 10 µM, first compound 0.1 µM
[34] = second compound 10 µM, first compound 0.316 µM
[35] = second compound 10 µM, first compound 1 µM
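Also: drug exposure lasted 7 days starting on day 3 after seeding.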
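For viability, T/C in this document: luminescence viability as percent of DMSO vehicle wells = 100%.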

SMILES: Nc1ncn(C2CC(O)C(CO)O2)c(=O)n1 (configuration not stated) + NC1CCC(NC2CC2c2ccccc2)CC1
pIC50 [1]: < 6.00 | pIC50 [2]: < 6.00 | pIC50 [3]: < 6.00 | pIC50 [4]: < 6.00 | pIC50 [5]: < 6.00 | viability, T/C [6]: 91.5% | viability, T/C [7]: 91.2% | viability, T/C [8]: 95.6% | viability, T/C [9]: 85.5% | viability, T/C [10]: 83.1% | viability, T/C [11]: 85.2% | viability, T/C [12]: 93.6% | viability, T/C [13]: 93.1% | viability, T/C [14]: 90.2% | viability, T/C [15]: 92.2% | viability, T/C [16]: 83% | viability, T/C [17]: 84.7% | viability, T/C [18]: 88.6% | viability, T/C [19]: 94.5% | viability, T/C [20]: 93.6% | viability, T/C [21]: 86.4% | viability, T/C [22]: 90.1% | viability, T/C [23]: 85.3% | viability, T/C [24]: 87.5% | viability, T/C [25]: 81.1% | viability, T/C [26]: 79.7% | viability, T/C [27]: 91.4% | viability, T/C [28]: 85.9% | viability, T/C [29]: 88.9% | viability, T/C [30]: 84.3% | viability, T/C [31]: 86.9% | viability, T/C [32]: 85.3% | viability, T/C [33]: 88.4% | viability, T/C [34]: 88.2% | viability, T/C [35]: 80.5%

pIC50 (curve of compound): 7.43 and 7.53
SMILES: O=C(C=Cn1cnc(-c2cc(C(F)(F)F)cc(C(F)(F)F)c2)n1)NNc1cnccn1
viability, T/C (compound 0.00316 µM): 124% and 114% | viability, T/C (compound 0.01 µM): 125% and 86.4% | viability, T/C (compound 0.0316 µM): 52.5% and 44.8% | viability, T/C (compound 0.1 µM): 43.6% and 32.7% | viability, T/C (compound 0.316 µM): 38.7% and 27.1% | viability, T/C (compound 1 µM): 25% and 18.6%

SMILES: O=C(C=Cn1cnc(-c2cc(C(F)(F)F)cc(C(F)(F)F)c2)n1)NNc1cnccn1 + NC1CC1c1ccc(-c2cccc(O)c2)cc1
pIC50 [1]: 7.56 | pIC50 [2]: 7.60 | pIC50 [3]: 7.62 | pIC50 [4]: 7.67 | pIC50 [5]: 7.63 | viability, T/C [6]: 133% | viability, T/C [7]: 75.4% | viability, T/C [8]: 44.4% | viability, T/C [9]: 35.1% | viability, T/C [10]: 27.6% | viability, T/C [11]: 16.2% | viability, T/C [12]: 121% | viability, T/C [13]: 75% | viability, T/C [14]: 40.5% | viability, T/C [15]: 32.6% | viability, T/C [16]: 28.2% | viability, T/C [17]: 17.7% | viability, T/C [18]: 121% | viability, T/C [19]: 71.1% | viability, T/C [20]: 38.9% | viability, T/C [21]: 34.8% | viability, T/C [22]: 29.3% | viability, T/C [23]: 16.8% | viability, T/C [24]: 112% | viability, T/C [25]: 68.3% | viability, T/C [26]: 36.8% | viability, T/C [27]: 33.5% | viability, T/C [28]: 26.6% | viability, T/C [29]: 18.9% | viability, T/C [30]: 97.8% | viability, T/C [31]: 70.3% | viability, T/C [32]: 39.7% | viability, T/C [33]: 33.3% | viability, T/C [34]: 31% | viability, T/C [35]: 20.1%

SMILES: Nc1ccn(C2OC(CO)C(O)C2(F)F)c(=O)n1 (configuration not stated) + NC1CC1c1ccc(-c2cccc(O)c2)cc1
pIC50 [1]: 8.55 | pIC50 [2]: 8.50 | pIC50 [3]: 8.53 | pIC50 [4]: 8.65 | pIC50 [5]: 8.52 | viability, T/C (second compound 0.1 µM, first compound 0.000949 µM): 84.7% | viability, T/C (second compound 0.1 µM, first compound 0.003 µM): 46.3% | viability, T/C (second compound 0.1 µM, first compound 0.00949 µM): 33.9% | viability, T/C (second compound 0.1 µM, first compound 0.03 µM): 25.2% | viability, T/C (second compound 0.1 µM, first compound 0.0949 µM): 22.6% | viability, T/C (second compound 0.1 µM, first compound 0.3 µM): 18.3% | viability, T/C (second compound 0.316 µM, first compound 0.000949 µM): 86.9% | viability, T/C (second compound 0.316 µM, first compound 0.003 µM): 49% | viability, T/C (second compound 0.316 µM, first compound 0.00949 µM): 34.2% | viability, T/C (second compound 0.316 µM, first compound 0.03 µM): 26.7% | viability, T/C (second compound 0.316 µM, first compound 0.0949 µM): 19.9% | viability, T/C (second compound 0.316 µM, first compound 0.3 µM): 17.1% | viability, T/C (second compound 1 µM, first compound 0.000949 µM): 76% | viability, T/C (second compound 1 µM, first compound 0.003 µM): 48.5% | viability, T/C (second compound 1 µM, first compound 0.00949 µM): 36% | viability, T/C (second compound 1 µM, first compound 0.03 µM): 25% | viability, T/C (second compound 1 µM, first compound 0.0949 µM): 20.4% | viability, T/C (second compound 1 µM, first compound 0.3 µM): 20.6% | viability, T/C (second compound 3.16 µM, first compound 0.000949 µM): 76.8% | viability, T/C (second compound 3.16 µM, first compound 0.003 µM): 36.9% | viability, T/C (second compound 3.16 µM, first compound 0.00949 µM): 33.3% | viability, T/C (second compound 3.16 µM, first compound 0.03 µM): 25.1% | viability, T/C (second compound 3.16 µM, first compound 0.0949 µM): 17.8% | viability, T/C (second compound 3.16 µM, first compound 0.3 µM): 18.8% | viability, T/C (second compound 10 µM, first compound 0.000949 µM): 77.4% | viability, T/C (second compound 10 µM, first compound 0.003 µM): 46.4% | viability, T/C (second compound 10 µM, first compound 0.00949 µM): 38% | viability, T/C (second compound 10 µM, first compound 0.03 µM): 28% | viability, T/C (second compound 10 µM, first compound 0.0949 µM): 23.3% | viability, T/C (second compound 10 µM, first compound 0.3 µM): 18.5%

— PubChem BioAssay AID1918943 (Molecular Pharmacology Branch, DTP, NCI, 2023)
